#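 Tested at 5 concentrations; 48 h exposure; 96-well plates; endpoints linearly interpolated, else capped at highest concentration. The concentration for 50% growth inhibition is given as GI50.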 Activity calls are given as the source filed them. No stated cut-off is given here; in the data, active = GI50 up to about 1.1 µM and inactive = higher.
# Experiments:
# Experiment in all cases: inhibition of tumour cell growth, NCI panel, 48 h
# SK-MEL-5 = test system: SK-MEL-5
# TK-10 = test system: TK-10
# KM12 = test system: KM12
# SF-295 = test system: SF-295
# OVCAR-5 = test system: OVCAR-5
# A498 = test system: A498
# NCI-H460 = test system: NCI-H460
# K562 = test system: K562
# CCRF-CEM = test system: CCRF-CEM
# LXFL 529 = test system: LXFL 529
# HL-60 = test system: HL-60
# SN12C = test system: SN12C
# SW-620 = test system: SW-620
# HOP-18 = test system: HOP-18
# RPMI-8226 = test system: RPMI-8226
# HCT-116 = test system: HCT-116
# IGROV-1 = test system: IGROV-1
# UACC-62 = test system: UACC-62
# UO-31 = test system: UO-31
# SNB-78 = test system: SNB-78
# A549 = test system: A549
# SK-MEL-2 = test system: SK-MEL-2
# SF-539 = test system: SF-539
# SF-268 = test system: SF-268
# OVCAR-8 = test system: OVCAR-8
# NCI-H522 = test system: NCI-H522
# NCI-H226 = test system: NCI-H226
# DMS-114 = test system: DMS-114
# Malme-3M = test system: Malme-3M
# XF498 = test system: XF498
# HOP-92 = test system: HOP-92
# EKVX = test system: EKVX
# COLO 205 = test system: COLO 205
# 786-0 = test system: 786-0
# OVCAR-3 = test system: OVCAR-3
# KM-20L2 = test system: KM-20L2
# NCI-H23 = test system: NCI-H23
# U-251 = test system: U-251
# ACHN = test system: ACHN
# HCT-15 = test system: HCT-15
# SNB-75 = test system: SNB-75
# M14 = test system: M14
# RXF 393 = test system: RXF 393
# SR = test system: SR
# UACC-257 = test system: UACC-257
# SK-MEL-28 = test system: SK-MEL-28
# SNB-19 = test system: SNB-19
# DLD-1 = test system: DLD-1
# HT-29 = test system: HT-29
# HCC 2998 = test system: HCC 2998
# LOX IMVI = test system: LOX IMVI
# SK-OV-3 = test system: SK-OV-3
# RXF 631 = test system: RXF 631
# DMS-273 = test system: DMS-273
# HOP-62 = test system: HOP-62
# CAKI-1 = test system: CAKI-1
# M19-MEL = test system: M19-MEL
# OVCAR-4 = test system: OVCAR-4
# MOLT-4 = test system: MOLT-4
smiles,measurement,setting,value
N#Cc1ccc(/C=C(/C(=O)c2ccccc2)c2ccccc2)cc1,GI50,SK-MEL-5,12.8 µM (inactive)
same,GI50,TK-10,24 µM (inactive)
same,GI50,KM12,3.24 µM (inactive)
same,GI50,SF-295,9.55 µM (inactive)
same,GI50,OVCAR-5,18 µM (inactive)
same,GI50,A498,17.9 µM (inactive)
same,GI50,NCI-H460,16.5 µM (inactive)
same,GI50,K562,2.6 µM (inactive)
same,GI50,CCRF-CEM,3.19 µM (inactive)
same,GI50,LXFL 529,4.78 µM (inactive)
same,GI50,HL-60,2.67 µM (inactive)
same,GI50,SN12C,9.66 µM (inactive)
same,GI50,SW-620,2.64 µM (inactive)
same,GI50,HOP-18,27.5 µM (inactive)
same,GI50,RPMI-8226,2.59 µM (inactive)
same,GI50,HCT-116,4.18 µM (inactive)
same,GI50,IGROV-1,23.7 µM (inactive)
same,GI50,UACC-62,7.48 µM (inactive)
same,GI50,UO-31,14.2 µM (inactive)
same,GI50,SNB-78,2.79 µM (inactive)
same,GI50,A549,16.9 µM (inactive)
same,GI50,SK-MEL-2,15 µM (inactive)
same,GI50,SF-539,21.2 µM (inactive)
same,GI50,SF-268,15.2 µM (inactive)
same,GI50,OVCAR-8,6.41 µM (inactive)
same,GI50,NCI-H522,8.41 µM (inactive)
same,GI50,NCI-H226,16.7 µM (inactive)
same,GI50,DMS-114,12.9 µM (inactive)
same,GI50,Malme-3M,12.6 µM (inactive)
same,GI50,XF498,10.1 µM (inactive)
same,GI50,HOP-92,14 µM (inactive)
same,GI50,EKVX,18.8 µM (inactive)
same,GI50,COLO 205,19.6 µM (inactive)
same,GI50,786-0,10.9 µM (inactive)
same,GI50,OVCAR-3,16.1 µM (inactive)
same,GI50,KM-20L2,11.2 µM (inactive)
same,GI50,NCI-H23,15.7 µM (inactive)
same,GI50,U-251,12.4 µM (inactive)
same,GI50,ACHN,15.5 µM (inactive)
same,GI50,HCT-15,12.2 µM
same,GI50,SNB-75,27.2 µM (inactive)
same,GI50,M14,13.3 µM (inactive)
same,GI50,RXF 393,17.8 µM (inactive)
same,GI50,SR,2.62 µM (inactive)
same,GI50,UACC-257,12.4 µM (inactive)
same,GI50,SK-MEL-28,15.8 µM (inactive)
same,GI50,SNB-19,19.4 µM (inactive)
same,GI50,DLD-1,6.58 µM (inactive)
same,GI50,HT-29,8.18 µM (inactive)
same,GI50,HCC 2998,16.9 µM (inactive)
same,GI50,LOX IMVI,2.75 µM (inactive)
same,GI50,SK-OV-3,20.5 µM (inactive)
same,GI50,RXF 631,11.1 µM (inactive)
same,GI50,DMS-273,4.82 µM (inactive)
same,GI50,HOP-62,17.9 µM (inactive)
same,GI50,CAKI-1,14.2 µM (inactive)
same,GI50,M19-MEL,14 µM (inactive)
same,GI50,OVCAR-4,10.2 µM (inactive)
same,GI50,MOLT-4,2.99 µM (inactive)
CCCCOCc1cc(CN2CCN(C)CC2)c(O)c2ncccc12,GI50,SK-MEL-5,4.02 µM (inactive)
same,GI50,TK-10,> 100 µM (inactive)
same,GI50,KM12,21.1 µM (inactive)
same,GI50,SF-295,4.17 µM (inactive)
same,GI50,OVCAR-5,24.4 µM (inactive)
same,GI50,A498,24.8 µM (inactive)
same,GI50,NCI-H460,7.46 µM (inactive)
same,GI50,K562,3.26 µM (inactive)
same,GI50,CCRF-CEM,3.07 µM (inactive)
same,GI50,LXFL 529,11.9 µM (inactive)
same,GI50,HL-60,2.13 µM (inactive)
same,GI50,SN12C,21.9 µM (inactive)
same,GI50,SW-620,9.89 µM (inactive)
same,GI50,HOP-18,5.35 µM (inactive)
same,GI50,RPMI-8226,3.29 µM (inactive)
same,GI50,HCT-116,14.7 µM (inactive)
same,GI50,IGROV-1,29.3 µM (inactive)
same,GI50,UACC-62,13.9 µM (inactive)
same,GI50,UO-31,9.66 µM (inactive)
same,GI50,SNB-78,31 µM (inactive)
same,GI50,A549,23.6 µM (inactive)
same,GI50,SK-MEL-2,25.3 µM (inactive)
same,GI50,SF-539,19.4 µM (inactive)
same,GI50,SF-268,16.2 µM (inactive)
same,GI50,OVCAR-8,17.8 µM (inactive)
same,GI50,NCI-H522,26.4 µM (inactive)
same,GI50,NCI-H226,20.8 µM (inactive)
same,GI50,DMS-114,6.38 µM (inactive)
same,GI50,Malme-3M,21.3 µM (inactive)
same,GI50,XF498,30.8 µM (inactive)
same,GI50,HOP-92,55.1 µM (inactive)
same,GI50,EKVX,23.5 µM (inactive)
same,GI50,COLO 205,29.6 µM (inactive)
same,GI50,786-0,14.6 µM (inactive)
same,GI50,OVCAR-3,7.59 µM (inactive)
same,GI50,KM-20L2,26.4 µM (inactive)
same,GI50,NCI-H23,14.5 µM (inactive)
same,GI50,U-251,12.5 µM (inactive)
same,GI50,ACHN,6.24 µM (inactive)
same,GI50,HCT-15,2.77 µM
same,GI50,SNB-75,52.7 µM (inactive)
same,GI50,M14,12.5 µM (inactive)
same,GI50,RXF 393,36.6 µM (inactive)
same,GI50,SR,3.49 µM (inactive)
same,GI50,UACC-257,21.1 µM (inactive)
same,GI50,SK-MEL-28,31.4 µM (inactive)
same,GI50,SNB-19,30.8 µM (inactive)
same,GI50,DLD-1,8.05 µM (inactive)
same,GI50,HT-29,31.6 µM (inactive)
same,GI50,HCC 2998,24.3 µM (inactive)
same,GI50,LOX IMVI,22.1 µM (inactive)
same,GI50,SK-OV-3,67.6 µM (inactive)
same,GI50,RXF 631,53.7 µM (inactive)
same,GI50,DMS-273,12.1 µM (inactive)
same,GI50,HOP-62,14.4 µM (inactive)
same,GI50,CAKI-1,24.6 µM (inactive)
same,GI50,M19-MEL,26.7 µM (inactive)
same,GI50,OVCAR-4,21.5 µM (inactive)
same,GI50,MOLT-4,4.79 µM (inactive)

# From ChEMBL document CHEMBL1201862, “PubChem BioAssay data set” (2004)
